Legend:
Type in all cases: in vivo
Conditions in all cases: lower rate of 250 g per hectare, evaluated after 13 days
[1] = tested on: Amaranthus palmeri (AMAPA); assay: Pre-emergence Test (Table B1)
[2] = tested on: Ipomoea hederacea (IPOHE); assay: Pre-emergence Test (Table B1)
Zea mays (ZEAMX) [3] = assay: Pre-emergence Test (Table B1); parameters: key: 5=81-100%; 4=61-80%; 3=41-60%; 2=21-40%; 1=0-20%; 0=inactive
[4] = tested on: Amaranthus retroflexus (AMARE); assay: Pre-emergence Test (Table B1)
Setaria faberi (SETFA) [5] = assay: Pre-emergence Test (Table B1); parameters: key: 5=81-100%; 4=61-80%; 3=41-60%; 2=21-40%; 1=0-20%; 0=inactive
[6] = tested on: Echinochloa crus-galli (ECHCG); assay: Pre-emergence Test (Table B1); parameters: key: 5=81-100%; 4=61-80%; 3=41-60%; 2=21-40%; 1=0-20%; 0=inactive
[7] = tested on: Amaranthus retroflexus (AMARE); assay: Post-emergence Test (Table B2)
Method in brief: (§1)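 Sow in standard soil; glasshouse conditions (24/16 °C, 14 h light, 65% humidity); spray at 1000 g/ha unless stated, aqueous acetone (50:50) with 0.5% Tween 20; grow on with twice-daily watering; score % damage at day 13.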

[8] = tested on: Amaranthus palmeri (AMAPA); assay: Post-emergence Test (Table B2)
Method in brief: as §1

Setaria faberi (SETFA) [9] = assay: Post-emergence Test (Table B2)
Method in brief: as §1

[10] = tested on: Echinochloa crus-galli (ECHCG); assay: Post-emergence Test (Table B2)
Method in brief: as §1

Zea mays (ZEAMX) [11] = assay: Post-emergence Test (Table B2)
Method in brief: as §1

[12] = tested on: Ipomoea hederacea (IPOHE); assay: Post-emergence Test (Table B2)
Method in brief: as §1

SMILES | percentage damage caused to the plant, AMAPA [1] | percentage damage caused to the plant, IPOHE [2] | percentage damage caused to the plant, ZEAMX (Zea mays (ZEAMX) [3]) | percentage damage caused to the plant, AMARE [4] | percentage damage caused to the plant, SETFA (Setaria faberi (SETFA) [5]) | percentage damage caused to the plant, ECHCG [6] | percentage damage caused to the plant, AMARE [7] | percentage damage caused to the plant, AMAPA [8] | percentage damage caused to the plant, SETFA (Setaria faberi (SETFA) [9]) | percentage damage caused to the plant, ECHCG [10] | percentage damage caused to the plant, ZEAMX (Zea mays (ZEAMX) [11]) | percentage damage caused to the plant, IPOHE [12]
CCn1c(C)c(-c2cc(C(=O)OC(C)C#N)c(Cl)cc2F)c(=O)c(C(=O)O)c1-c1ccc(Cl)c(Cl)c1 (stereo not drawn) [Compound 44, 5-[4-chloro-5-(1-cyanoethoxycarbonyl)-2-fluoro-phenyl]-2-(3,4-dichlorophenyl)-1-ethyl-6-methyl-4-oxo-pyridine-3-carboxylic acid] | 5 (5=81-100%) | 2 (2=21-40%) | 0 | 5 (5=81-100%) | 0 | 0 | 5 (5=81-100%) | 5 (5=81-100%) | 3 (3=41-60%) | 3 (3=41-60%) | 2 (2=21-40%) | 4 (4=61-80%)
CCn1c(C)c(-c2cc(C(=O)OC3CC3)c(Cl)cc2F)c(=O)c(C(=O)O)c1-c1ccc(C#N)c(Cl)c1 [Compound 46, 2-(3-chloro-4-cyano-phenyl)-5-[4-chloro-5-(cyclopropoxycarbonyl)-2-fluoro-phenyl]-1-ethyl-6-methyl-4-oxo-pyridine-3-carboxylic acid] | 5 (5=81-100%) | 2 (2=21-40%) | 0 | 5 (5=81-100%) | 1 (1=0-20%) | 0 | 5 (5=81-100%) | 5 (5=81-100%) | 5 (5=81-100%) | 5 (5=81-100%) | 5 (5=81-100%) | 4 (4=61-80%)

Reference: patent US20260060250A1, “HERBICIDAL PYRIDONE DERIVATIVES” (SYNGENTA CROP PROTECTION AG, priority 2022, published 2026)
